Where “and” joins values, the source holds several entries; their conditions need not be identical. Equal values may be shown once. Inconclusive results and toxic doses are left out. How the source made its calls: active means survival T/C of 150% or more; inactive means T/C below 125% in these data.
Test system: BDF1 mice, P388 leukemia ip, median survival T/C
Assay: NCI In Vivo Anticancer Drug Screen. Data for tumor model P388 Leukemia (intraperitoneal) in B6D2F1 (BDF1) mice
Conditions: endpoint: median survival time, higher = longer survival
How it was run: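 Antitumour effect was judged in vivo: survival in drug-treated mice, normalised to that of vehicle-dosed controls, gives the reported T/C.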

[1] = dose: 100.0 mg/kg/injection, schedule: Q04DX003 (ip), vehicle: saline
[2] = dose: 200.0 mg/kg/injection, schedule: Q04DX003 (ip), vehicle: saline
[3] = dose: 20.0 mg/kg/injection, schedule: Q01DX009 (ip), vehicle: saline with Tween-80
[4] = dose: 100.0 mg/kg/injection, schedule: Q04DX003 (ip), vehicle: Klucel (hydroxypropylcellulose) (HPC)
[5] = dose: 200.0 mg/kg/injection, schedule: Q04DX003 (ip), vehicle: Klucel (hydroxypropylcellulose) (HPC)
[6] = dose: 100.0 mg/kg/injection, schedule: Q04DX003 (ip), vehicle: saline with Tween-80
[7] = dose: 200.0 mg/kg/injection, schedule: Q04DX003 (ip), vehicle: saline with Tween-80
[8] = dose: 400.0 mg/kg/injection, schedule: Q04DX003 (ip), vehicle: saline with Tween-80
[9] = dose: 25.0 mg/kg/injection, schedule: Q01DX009 (ip), vehicle: saline with Tween-80
[10] = dose: 50.0 mg/kg/injection, schedule: Q01DX009 (ip), vehicle: saline with Tween-80
[11] = dose: 100.0 mg/kg/injection, schedule: Q01DX009 (ip), vehicle: saline with Tween-80
[12] = dose: 200.0 mg/kg/injection, schedule: Q01DX009 (ip), vehicle: saline with Tween-80
[13] = dose: 12.5 mg/kg/injection, schedule: Q01DX009 (ip), vehicle: saline with Tween-80
[14] = dose: 12.5 mg/kg/injection, schedule: Q01DX009 (ip), vehicle: saline
[15] = dose: 50.0 mg/kg/injection, schedule: Q04DX003 (ip), vehicle: saline
[16] = dose: 50.0 mg/kg/injection, schedule: Q01DX009 (ip), vehicle: saline
[17] = dose: 6.25 mg/kg/injection, schedule: Q04DX003 (ip), vehicle: saline
[18] = dose: 12.5 mg/kg/injection, schedule: Q04DX003 (ip), vehicle: saline
[19] = dose: 25.0 mg/kg/injection, schedule: Q04DX003 (ip), vehicle: saline
[20] = dose: 25.0 mg/kg/injection, schedule: Q01DX009 (ip), vehicle: Klucel (hydroxypropylcellulose) (HPC)
[21] = dose: 50.0 mg/kg/injection, schedule: Q04DX003 (ip), vehicle: Klucel (hydroxypropylcellulose) (HPC)

Measured: T/C

CN(C)c1cc(F)c(C=O)cc1[N+](=O)[O-]
inactive: [1] 95 % of control | [2] 100 % of control | dose: 400.0 mg/kg/injection, schedule: Q04DX003 (ip), vehicle: saline 104 % of control

O=C1CCC(C(=O)N/N=C\C=N/NC(=O)C2CCC(=O)N2)N1 (stereo not given)
inactive: [3] 91 % of control

CC(C)OC(=O)Oc1cccc2c1C(=O)c1ccccc1C2=O
inactive: [4] 104 % of control | [5] 108 % of control | dose: 400.0 mg/kg/injection, schedule: Q04DX003 (ip), vehicle: Klucel (hydroxypropylcellulose) (HPC) 104 % of control

Cc1ccc2nc3c(nc2c1)-c1cccc2cccc-3c12
inactive: [6] 87 % of control | [7] 91 % of control | [8] 91 % of control

COc1ccc(-c2c[se]c(=S)s2)cc1
inactive: [9] 99 % of control | [10] 94 % of control | [11] 87 % of control

Cc1ccc(C2(C#N)CCCC2)cc1
inactive: [11] 104 % of control | [12] 113 % of control

CCCCCCCCCCNCCS
inactive: dose: 8.0 mg/kg/injection, schedule: Q01DX010 (ip), vehicle: carboxymethylcellulose (CMC) 105 % of control | dose: 16.0 mg/kg/injection, schedule: Q01DX010 (ip), vehicle: carboxymethylcellulose (CMC) 110 % of control | dose: 32.0 mg/kg/injection, schedule: Q01DX010 (ip), vehicle: carboxymethylcellulose (CMC) 105 % of control

Clc1nc2ccccc2nc1CI
inactive: dose: 1.8 mg/kg/injection, schedule: Q01DX009 (ip), vehicle: saline 118 % of control | dose: 2.7 mg/kg/injection, schedule: Q01DX009 (ip), vehicle: saline 122 % of control | dose: 8.75 mg/kg/injection, schedule: Q04DX003 (ip), vehicle: saline 113 % of control | [13] 118 % of control | [14] 90 % of control | dose: 12.5 mg/kg/injection, schedule: Q04DX003 (ip), vehicle: saline with Tween-80 113 % of control | dose: 17.5 mg/kg/injection, schedule: Q04DX003 (ip), vehicle: saline 121 % of control | dose: 25.0 mg/kg/injection, schedule: Q04DX003 (ip), vehicle: saline with Tween-80 118 % of control | dose: 35.0 mg/kg/injection, schedule: Q04DX003 (ip), vehicle: saline 113 % of control | [15] 113 % of control

NNC(=O)c1ccncc1
inactive: [16] 110 % of control | [15] 105 % of control | [1] 105 % of control | [2] 100 % of control

CNC(C)c1ccc(C)cc1 (stereo not given)
inactive: [17] 100 % of control | [18] 104 % of control | [19] 100 % of control

COc1cc2c(cc1OC)C(c1c(-c3c(Cl)cccc3Cl)noc1C)=NCC2
inactive: [10] 99 % of control | [11] 92 % of control | [12] 106 % of control

CCN1CCC2(CC1)COCc1ccccc12
inactive: dose: 50.0 mg/kg/injection, schedule: Q04DX002 (ip), vehicle: saline with Tween-80 107 % of control | dose: 100.0 mg/kg/injection, schedule: Q04DX002 (ip), vehicle: saline with Tween-80 91 % of control

O=C1C(Cl)=C(Cl)C(=O)c2ccccc21
inactive: dose: 6.25 mg/kg/injection, schedule: Q01DX009 (ip), vehicle: Klucel (hydroxypropylcellulose) (HPC) 115 % of control | dose: 12.5 mg/kg/injection, schedule: Q01DX009 (ip), vehicle: Klucel (hydroxypropylcellulose) (HPC) 115 % of control | [20] 112 % of control

CC(C)(C)C(CO)CO
inactive: [10] 93 % of control | [11] 100 % of control | [12] 100 % of control

Clc1nn2nnnc2c2ccccc12
inactive: dose: 10.0 mg/kg/injection, schedule: Q01DX009 (ip), vehicle: saline with Tween-80 102 % of control | [3] 122 % of control | dose: 37.5 mg/kg/injection, schedule: Q01DX009 (ip), vehicle: saline with Tween-80 91 % of control

BrCC1CCCO1 (stereo not given)
inactive: [9] 101 % of control | [10] 110 % of control

CCOC(=O)NC(=S)n1ncnc1N
inactive: dose: 8.75 mg/kg/injection, schedule: Q01DX009 (ip), vehicle: saline 95 % of control | dose: 12.5 mg/kg/injection, schedule: Q04DX003 (ip), vehicle: Klucel (hydroxypropylcellulose) (HPC) 110 % of control | dose: 17.5 mg/kg/injection, schedule: Q01DX009 (ip), vehicle: saline 105 % of control | dose: 25.0 mg/kg/injection, schedule: Q04DX003 (ip), vehicle: Klucel (hydroxypropylcellulose) (HPC) 100 % of control | dose: 35.0 mg/kg/injection, schedule: Q01DX009 (ip), vehicle: saline 90 % of control | [21] 100 % of control

CCC(C)NCCNCCNC(C)CC (stereo not given)
inactive: [17] 95 % of control | [18] 95 % of control | [19] 104 % of control

CCn1cnc2c(SC)nc(N)nc21
inactive: [20] 110 % of control | dose: 50.0 mg/kg/injection, schedule: Q01DX009 (ip), vehicle: Klucel (hydroxypropylcellulose) (HPC) 105 % of control | dose: 50.0 mg/kg/injection, schedule: Q04DX003 (ip), vehicle: alcohol 100 % of control | dose: 75.0 mg/kg/injection, schedule: Q04DX003 (ip), vehicle: Klucel (hydroxypropylcellulose) (HPC) 104 % of control | dose: 100.0 mg/kg/injection, schedule: Q01DX009 (ip), vehicle: Klucel (hydroxypropylcellulose) (HPC) 100 % of control | dose: 100.0 mg/kg/injection, schedule: Q04DX003 (ip), vehicle: alcohol 100 % of control | dose: 150.0 mg/kg/injection, schedule: Q04DX003 (ip), vehicle: Klucel (hydroxypropylcellulose) (HPC) 100 % of control | dose: 200.0 mg/kg/injection, schedule: Q04DX003 (ip), vehicle: alcohol 100 % of control | dose: 300.0 mg/kg/injection, schedule: Q04DX003 (ip), vehicle: Klucel (hydroxypropylcellulose) (HPC) 109 % of control

NCC=C1C2CC3CC(C2)CC1C3
inactive: [18] 103 % of control | [19] 100 % of control | [15] 100 % of control

C=C1C(=O)OC(C)(C)C1(C)C
inactive: [14] 105 % of control | dose: 25.0 mg/kg/injection, schedule: Q01DX009 (ip), vehicle: saline 98 % of control | [16] 86 % of control and 88 % of control

Cc1ccc(NC(=O)c2ccccc2C(=O)O)cc1C
inactive: [6] 118 % of control | [7] 100 % of control | [8] 118 % of control

O=[N+]([O-])c1cccc(OCCOc2ccccc2)c1
inactive: [6] 100 % of control | [7] 115 % of control | [8] 105 % of control

CCN(C(=O)Nc1ccccc1Cl)c1ccccc1
inactive: dose: 100.0 mg/kg/injection, schedule: Q01DX001 (ip), vehicle: saline with Tween-80 95 % of control | dose: 200.0 mg/kg/injection, schedule: Q01DX001 (ip), vehicle: saline with Tween-80 100 % of control | dose: 400.0 mg/kg/injection, schedule: Q01DX001 (ip), vehicle: saline with Tween-80 100 % of control

CC([CH2][Hg][Cl])c1ccccc1 (stereo not given)
inactive: dose: 3.13 mg/kg/injection, schedule: Q01DX009 (ip), vehicle: saline with Tween-80 122 % of control | dose: 4.16 mg/kg/injection, schedule: Q01DX009 (ip), vehicle: saline with Tween-80 118 % of control | dose: 6.25 mg/kg/injection, schedule: Q01DX009 (ip), vehicle: saline with Tween-80 113 % of control | dose: 9.38 mg/kg/injection, schedule: Q01DX009 (ip), vehicle: saline with Tween-80 109 % of control | [13] 109 % of control

COc1cc(OC)cc(C(N)=O)c1
inactive: [21] 100 % of control | [4] 95 % of control | [5] 100 % of control

COC(CN(C)C(=O)NC1CCCCC1)OC
inactive: dose: 50.0 mg/kg/injection, schedule: Q04DX003 (ip), vehicle: saline with Tween-80 95 % of control | [6] 100 % of control | [7] 100 % of control

From PubChem BioAssay AID328 (DTP/NCI, 2004)
